Like-named read-outs stand apart in the source and are kept apart here.
Legend:
NDM-1 = NDM-1 (Klebsiella pneumoniae, UniProt C7C422); assay: biochemical; type: biochemical; settings: NDM-1 enzyme, CCF2-FA fluorescence assay; read-out: NDM-1 IC50
[1] = test system: Klebsiella pneumoniae expressing VIM-1 (IHMA599644); assay: Antibiotic potentiation activity: synergistic concentration (MITC95) with imipenem, OD600 growth; type: cell-based; settings: Klebsiella pneumoniae expressing VIM-1 (IHMA599644), 95% growth inhibition
Method in brief: (§1)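 Overnight colonies (35 °C) were suspended in saline, diluted 1:100 into 1.1× CAMHB, and exposed to test compound with imipenem at 4 μg/ml (optionally 1 μg/ml) in assay. After 22–24 h at 35 °C, growth was read by absorbance.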

[2] = test system: Serratia marcescens expressing IMP-1 (CL5741); assay: as above; type: cell-based; settings: Serratia marcescens expressing IMP-1 (CL5741), 95% growth inhibition
Method in brief: as §1

[3] = test system: Escherichia coli expressing NDM-1 (CLB30005); assay: as above; type: cell-based; settings: Escherichia coli expressing NDM-1 (CLB30005), 95% growth inhibition
Method in brief: as §1

IMP-1 = IMP-1 (Serratia marcescens, UniProt P52699); assay: biochemical; type: biochemical; settings: IMP-1 enzyme, CCF2-FA fluorescence assay; read-out: IMP-1 IC50
VIM-1 = VIM-1 (Pseudomonas aeruginosa (strain ATCC 15692 / DSM 22644 / CIP 104116 / JCM 14847 / LMG 12228 / 1C / PRS 101 / PAO1), UniProt A0A0F7KYQ8); assay: Enzyme activity: determination of IC50, fluorescence assay with CCF2-FA substrate (VIM-1); type: biochemical; settings: CCF2-FA fluorescence assay
[4] = VIM-1 enzyme, read-out: VIM-1 IC50

Chain of IMP-1 (P52699 whole entry, looked up): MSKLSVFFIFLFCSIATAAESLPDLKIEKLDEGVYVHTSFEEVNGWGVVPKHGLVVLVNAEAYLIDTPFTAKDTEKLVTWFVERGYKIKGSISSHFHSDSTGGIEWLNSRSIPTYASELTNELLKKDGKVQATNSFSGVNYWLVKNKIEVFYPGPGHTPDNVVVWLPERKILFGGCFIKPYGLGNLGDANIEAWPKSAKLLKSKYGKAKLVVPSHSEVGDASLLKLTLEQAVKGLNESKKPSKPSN
Chain of NDM-1 (C7C422 whole entry, looked up, species assumed): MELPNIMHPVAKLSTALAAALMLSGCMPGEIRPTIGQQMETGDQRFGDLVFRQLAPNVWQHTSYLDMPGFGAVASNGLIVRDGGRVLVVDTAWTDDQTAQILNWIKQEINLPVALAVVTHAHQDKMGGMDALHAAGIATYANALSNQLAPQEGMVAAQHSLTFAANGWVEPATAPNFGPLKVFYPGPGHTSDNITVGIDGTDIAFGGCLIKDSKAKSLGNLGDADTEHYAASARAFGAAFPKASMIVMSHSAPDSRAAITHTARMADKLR

Row | SMILES | IC50 (NDM-1) [nM] | Klebsiella pneumoniae MITC95 [1] [µM] | Serratia marcescens MITC95 [2] [µM] | Escherichia coli MITC95 [3] [µM] | IC50 (IMP-1) [nM] | IC50 (VIM-1; [4]) [nM] | IC50 (VIM-1; VIM-1 IC50, VIM-1 enzyme) [nM]
1 | NCc1nc(-c2ccc(-c3cccc(S(N)(=O)=O)c3-c3nn[nH]n3)cc2)no1 [Example 249, 4′-(5-(Aminomethyl)-1,2,4-oxadiazol-3-yl)-2-(2H-tetrazol-5-yl)-[1,1′-biphenyl]-3-sulfonamide] | 7.55 | 50 | 3.125 | 0.7813 | 104 | 87 | 
2 | NS(=O)(=O)c1cccc(-c2ccc(-c3noc(C4CCNC4)n3)cc2)c1-c1nn[nH]n1 (stereo not drawn) [Example 250, 4′-(5-(pyrrolidin-3-yl)-1,2,4-oxadiazol-3-yl)-2-(2H-tetrazol-5-yl)-[1,1′-biphenyl]-3-sulfonamide] | 18 | 100 | 4.688 | 0.7813 | 109 | 195 | 
3 | C[C@H](O)c1nc(-c2ccc(-c3cccc(S(N)(=O)=O)c3-c3nn[nH]n3)cc2)no1 [Example 251, (S)-4′-(5-(1-hydroxyethyl)-1,2,4-oxadiazol-3-yl)-2-(2H-tetrazol-5-yl)-[1,1′-biphenyl]-3-sulfonamide] | 5.85 | 200 | 6.25 | 0.7813 | 42.5 |  | 71.6
4 | COc1ccc(S(N)(=O)=O)c(-c2nn[nH]n2)c1 [Example 253, 4-Methoxy-2-(2H-tetrazol-5-yl)benzenesulfonamide] | 440 | >200 | >200 | 3.125 | 46300 | 170000 | 
5 | NS(=O)(=O)c1cccc(C(F)(F)F)c1-c1nnn[nH]1 [Example 256, 2-(1H-Tetrazol-5-yl)-3-(trifluoromethyl)benzenesulfonamide] | 230 | >200 | 100 | 0.7813 | 6260 | 8440 | 
6 | COc1cccc(S(N)(=O)=O)c1-c1nnn[nH]1 [Example 257, 3-Methoxy-2-(1H-tetrazol-5-yl)benzenesulfonamide] | 547 | >200 | 150 | 1.563 | 8280 | 9230 | 
7 | NS(=O)(=O)c1cccc(-c2ccc(CO)nc2)c1-c1nnn[nH]1 [Example 258, 3-(6-(Hydroxymethyl)pyridin-3-yl)-2-(1H-tetrazol-5-yl)benzenesulfonamide] | 12.9 | 15.63 | 37.5 | 1.302 | 888 | 147 | 
8 | NS(=O)(=O)c1c(Br)ccc(-c2ccc(C3CCNCC3)cc2)c1-c1nnn[nH]1 [Example 259, 4-Bromo-4′-(piperidin-4-yl)-2-(1H-tetrazol-5-yl)-[1,1′-biphenyl]-3-sulfonamide] | 11 | 3.125 | 1 | 1.584 | 10.1 | 3.1 | 
9 | CCCc1ccc(-c2ccc(C3CCNCC3)cc2)c(-c2nnn[nH]2)c1S(N)(=O)=O [Example 260, 4′-(Piperidin-4-yl)-4-propyl-2-(1H-tetrazol-5-yl)-[1,1′-biphenyl]-3-sulfonamide] | 11.2 | 6.25 | 1.563 | 6.25 | 6.72 | 0.797 | 
10 | NS(=O)(=O)c1nncc(-c2ccc(Br)cc2)c1-c1nn[nH]n1 [Example 277, 5-(4-Bromophenyl)-4-(2H-tetrazol-5-yl)pyridazine-3-sulfonamide] | 296 | >200 | 125 | 12.5 | 5270 | 1230 | 
11 | CS(=O)(=O)c1nc2cc(Cl)c(-c3cccc(S(N)(=O)=O)c3-c3nn[nH]n3)cc2[nH]1 [Example 278, 3-(5-chloro-2-(methylsulfonyl)-1H-benzo[d]imidazol-6-yl)-2-(2H-tetrazol-5-yl)benzenesulfonamide] | 8.5 | 100 | 37.5 | 3.125 | 536 | 79.1 | 
12 | COc1nc2cc(Cl)c(-c3cccc(S(N)(=O)=O)c3-c3nn[nH]n3)cc2[nH]1 [Example 279, 3-(5-chloro-2-methoxy-1H-benzo[d]imidazol-6-yl)-2-(2H-tetrazol-5-yl)benzenesulfonamide] | 32.3 | 75 | 25 | 0.5859 | 2170 |  | 183
13 | NS(=O)(=O)c1cc(Cl)cc(-c2ccc3c(c2)C(=O)NC3)c1-c1nn[nH]n1 [Example 289, 5-Chloro-3-(3-oxo-2,3-dihydro-1H-isoindol-5-yl)-2-(2H-tetrazol-5-yl)benzenesulfonamide] | 13.5 | >200 | 31.25 | 3.125 | 121 | 452 | 
14 | Cc1ccc(-c2cc(-c3ccc4c(c3)CNC4=O)cc(S(N)(=O)=O)c2-c2nn[nH]n2)cc1 [Example 290, 4′-Methyl-5-(1-oxoisoindolin-5-yl)-2-(2H-tetrazol-5-yl)-[1,1′-biphenyl]-3-sulfonamide] | 0.637 | >200 | 19.53 | 3.516 | 19.7 | 34.3 | 
15 | Cc1ccc(-c2cc(-c3cnn(C)c3)cc(S(N)(=O)=O)c2-c2nn[nH]n2)cc1 [Example 291, 4′-methyl-5-(1-methyl-1H-pyrazol-4-yl)-2-(2H-tetrazol-5-yl)-[1,1′-biphenyl]-3-sulfonamide] | 1.47 | >200 | 4.688 | 3.906 | 98.6 | 222 | 
16 | Cc1ccc(-c2cc(-c3ccc(O)nc3)cc(S(N)(=O)=O)c2-c2nn[nH]n2)cc1 [Example 292, 5-(6-hydroxypyridin-3-yl)-4′-methyl-2-(2H-tetrazol-5-yl)-[1,1′-biphenyl]-3-sulfonamide] | 3.65 | >200 | 18.75 | 3.516 | 416 | 193 | 
17 | Cc1ccc(-c2cc(-c3cccnc3)cc(S(N)(=O)=O)c2-c2nn[nH]n2)cc1 [Example 293, 4′-methyl-5-(pyridin-3-yl)-2-(2H-tetrazol-5-yl)-[1,1′-biphenyl]-3-sulfonamide] | 1.02 | >200 | 9.375 | 1.953 | 86.5 | 232 | 
18 | Cc1ccc(-c2cc(-c3ccc4c(c3)CNC4)cc(S(N)(=O)=O)c2-c2nn[nH]n2)cc1 [Example 294, 5-(isoindolin-5-yl)-4′-methyl-2-(2H-tetrazol-5-yl)-[1,1′-biphenyl]-3-sulfonamide] | 0.637 | 37.5 | 0.6406 | 0.3802 | 29.4 |  | 193
19 | Cc1ccc(-c2cc(-c3cccc(C(N)=O)c3)cc(S(N)(=O)=O)c2-c2nn[nH]n2)cc1 [Example 295, 4″-methyl-5′-sulfamoyl-4′-(2H-tetrazol-5-yl)-[1,1′:3′,1″-terphenyl]-3-carboxamide] | 0.637 | >200 | 1.563 | 1.953 | 16.1 | 126 | 
20 | Cc1ccc(-c2cc(-c3ccc(C(N)=O)cc3)cc(S(N)(=O)=O)c2-c2nn[nH]n2)cc1 [Example 296, 4″-methyl-5′-sulfamoyl-4′-(2H-tetrazol-5-yl)-[1,1′:3′,1″-terphenyl]-4-carboxamide] | 0.637 | >200 | 3.125 | 1.953 | 54.8 | 127 | 
21 | NS(=O)(=O)c1cccc(C(=O)O)c1-c1nn[nH]n1 [Example 297, 3-Sulfamoyl-2-(2H-tetrazol-5-yl)benzoic acid] | 2480 | >200 | >200 | 12.5 | 20000 | 20000 | 
22 | Cc1ccc(-c2cccc(S(N)(=O)=O)c2-c2nnn[nH]2)cn1 [Example 299, 3-(6-methylpyridin-3-yl)-2-(1H-tetrazol-5-yl)benzenesulfonamide] | 11.8 | 37.5 | 18.75 | 0.1953 | 444 |  | 110
